Assay [1] has as its system CDC37-nanoKAZ. Kind of assay: Luminescence activity of CDC37-nanoKAZ in total cell lysates. The conditions noted are these: counter-test, same concentrations as interaction assay. The format is cell-based. The method, then:
(§1) The luminescence activity of the cell lysates was determined using a Centro LB 960 Microplate Luminometer (Berthold Technologies, Bad Wildbad, Germany). A reaction mixture containing bis-coelenterazine (final concentration of 0.1–1 μg/100 μL) in PBS containing 0.02% Tween20 and 20 mM EDTA was injected. The luminescence intensity was recorded at 0.1 s intervals for 10 s or 10 min. The maximum luminescence intensity (Imax), represented in relative luminescence units (rlu), was used in the study.
Targeting the DYRK1A/CDC37 complex
(a-d) Luminescence intensities of total cell lysates of cells treated with the indicated […]
Figure 4. Luminescence intensities at each concentration are shown as fold-changes relative to that at 0 nM. Points are means ± SD (n = 3).
(1 picture or pasted object on this page, not shown here)
Luminescence intensities of total cell lysates of cells treated with the indicated concentrations of CaNDY, as also used in Figure 5c. Luminescence intensities at each concentration are shown as fold-changes to that at 0 nM. Points are means ± SD (n = 3).

The target of assay [2] is T1, 3xFLAG-DYRK1A (Homo sapiens, UniProt Q13627).
T1 construct: F2A peptide linking to EGFP (2A skipping releases EGFP; a 2A remnant may stay on DYRK1A) (C); expressed in transfected cells; host or cells: 293T cells, transient
The assay is described as follows: Western blot of 3xFLAG-DYRK1A level in transfected 293T cells. The format is cell-based. As for the experimental part: To investigate whether DYRK1A is a client kinase of the CDC37/HSP90 system, we used a HSP90 inhibitor, ganetespib. 293T cells were transiently transfected with an expression vector of 3xFLAG-tagged DYRK1A (3xFLAG-DYRK1A). At 24 h after transfection, the cells were treated with ganetespib for the indicated time (0–8 h). Total cell lysates were collected and subjected to SDS-PAGE followed by Western blot analysis.
Figure 1 Ganetespib, a HSP90 inhibitor, decreases the DYRK1A protein level. 293T cells were transiently transfected with an expression vector for 3xFLAG-DYRK1A. At 24 h after transfection, the cells were treated with ganetespib (100 nM) and collected 0 and 8 h after treatment. Total cell lysates were subjected to SDS-PAGE followed by Western blot analysis using antibodies against FLAG and GAPDH. In the control group (DMSO), expression of 3xFLAG-DYRK1A increased at 8 h compared to 0 h, and ganetespib suppressed this increase of 3xFLAG-DYRK1A.
(§2) Western blot analysis was performed using the antibodies described above. In brief, total cell lysates were separated by SDS-PAGE (5–20% gels; ATTO, Tokyo, Japan) under reducing conditions and then transferred to a PVDF membrane (PALL, SP, Brazil). Antibody reactions were performed with Can Get Signal® Immunoreaction Enhancer Solution (Toyobo). Peroxidase activities on the membrane were visualized with ECL Western Blotting Detection Reagents (GE Healthcare) or ImmunoStar® LD (Wako Pure Chemical Industries, Osaka, Japan), and a ChemiDoc^TM MP Imaging System (Bio-Rad, Hercules, CA, USA).
(Immunoblotting shows a protein as a band on a membrane.)

Assay [3] addresses T2, endogenous DYRK1A (Homo sapiens, UniProt Q13627).
T2 construct: endogenous in cells; host or cells: HEK293
The assay is described as follows: Western blot of endogenous DYRK1A protein in HEK293 cells. The conditions noted are these: ganetespib 100 nM, 4 days. The format is cell-based. The method, then: We investigated whether CaNDY destabilizes DYRK1A as ganetespib does. […] Next we examined whether CaNDY decreased endogenous DYRK1A protein. HEK293 cells were cultured for 0–4 days with CaNDY (2 μM) and then subjected to SDS-PAGE followed by Western blot analysis using antibodies against DYRK1A and GAPDH. […] The treated cells were also subjected to reverse transcription followed by quantitative PCR analysis.
as §2

Assay [4] has as its target T3, interaction of CDC37-nanoKAZ with 3xFLAG-DYRK1A (Y319F/Y321F) (Homo sapiens, UniProt Q13627, Y319F/Y321F).
T3 construct: F2A peptide linking to EGFP (2A skipping releases EGFP; a 2A remnant may stay on DYRK1A) (C); expressed in transfected cells; host or cells: 293T cells stably expressing CDC37-nanoKAZ, transiently transfected with pcDNA5/FRT/TO 3xFLAG-DYRK1A (Y319F/Y321F)
Kind of assay: CDC37-nanoKAZ binding assay (ELISA of the CDC37-nanoKAZ interaction) in 293T cells. The conditions noted are these: for EC50: 293T cells stably expressing CDC37-nanoKAZ, treated one hour, read-out: EC50, decrease of relative luminescence intensity; for antagonism of the CDC37-nanoKAZ interaction: result in words, Fig. 6c. The format is cell-based. The method, then:
The cells were then treated with the indicated concentrations of small molecules for one hour. Cell lysates were added to FLAG antibody-coated 96-well plates and luminescence intensities were measured. The amount of bound 3xFLAG-DYRK1A was measured using a HRP-conjugated antibody against FLAG. The relative Imax for CDC37-nanoKAZ was normalized using the amount of bound protein.
Stable cell lines transfected with expression vectors for 3xFLAG-tagged DYRK family kinases and its mutants were lysed in ice-cold HENG buffer (50 mM HEPES-KOH, pH 7.9, 150 mM NaCl, 20 mM Na2MoO4, 2 mM EDTA, 5% Glycerol, 0.5% TritonX-100) containing protease inhibitor cocktail (Nacalai Tesque) on ice. […] The wells were wash three times with ice-cold HENG buffer and then a luminescence assay was performed.
as §1
After measuring the luminescence intensities, the wells were washed three times with HENG buffer, and incubated with HRP-conjugated anti-FLAG antibody diluted with PBS containing […] and 2% fetal bovine serum at 37 °C for one hour. After extensive washing, […] Super Sensitive One Component HRP Microwell Substrate (SurModics, Eden Prairie, MN, USA) was added into the well and the reaction was stopped with sulfuric acid. Absorbance at 450 nm was measured with ARVO X5 (PerkinElmer). The relative amount of protein bound on the well was estimated from the absorbance.
In Supporting Figure S1a, the values of Imax are shown in kinetics plots. In Figs 2c,e, 3c, S1d, S3, and S4, the relative luminescence intensities are shown as the fold-change in the Imax values of the samples relative to Imax with EGFP. In Figs 4, 5a,c and 6c, the relative luminescence intensities were normalized to the amount of the bound 3xFLAG-DYRK1A mutant and calculated as the fold-change relative to the value at 0 μM of the compounds.
Small molecules in our original synthetic chemical library, including unpublished small molecule inhibitors of DYRK1A and its structural derivatives (data not shown), were added to the 96-well plates containing the transfected cells at a final concentration of 4 μM. The cells were then processed as described above.
A general note: In an ELISA, binding on a coated surface is turned into a signal by an enzyme label.

For assay [5], the target named is DYRK1A (Homo sapiens, UniProt Q13627). The assay is described as follows: In vitro kinase assay, substrate DYRKtide-F. In kind it is biochemical. Details: full-length human recombinant kinases were expressed using a baculovirus expression system as amino-terminal GST-fusion proteins; GST (N); purchased Carna Biosciences; host or cells: baculovirus expression system. The note with it: for inhibitory activity against recombinant DYRK1A: result in words, Fig. 6b. An excerpt:
Detailed information on the assay conditions is available on the website of Carna Biosciences (http://www.carnabio.com/english/index.html; Kobe, Japan). In brief, full-length human recombinant kinases were expressed using a baculovirus expression system as amino-terminal GST-fusion proteins, and purified by glutathione-Sepharose chromatography. The GenBank accession numbers of DYRK1A, DYRK1B, DYRK2, and DYRK3 were NP_001387.2, NP_004705.1, NP_003574.1, and NP_003573.2. […] For each compound, a DMSO solution was diluted in assay buffer to yield a final concentration of 1% DMSO. After incubation for one hour at room temperature, substrate phosphorylation was analyzed by electrophoretic separation of the substrate and products using a Caliper LC3000 platform (Caliper Life Sciences, Mountain View, CA, USA). The phosphorylated product (P)/(P + substrate) ratio was calculated at each concentration of each small molecule and the percent inhibition was expressed relative to a control assay in the absence of the small molecule. […] The IC50 of each compound was calculated by interpolation on a log-concentration-response curve fitted with a four-parameter logistic equation.

As for `COc1ccc2c(c1)[nH]c1c(C)nccc12` [harmine], the “inhibition of luminescence activity of CDC37-nanoKAZ” value (shortened to “inhibition”) in assay [1] is “did not inhibit”.
As to `CCN1/C(=C/C(C)=O)Sc2ccc(O)cc21` [INDY], the “inhibition” value in assay [1] is “did not inhibit”.
The term EC50 denotes the concentration needed to bring the measured effect to its halfway point. For `CC(C)c1cc(-c2n[nH]c(=O)n2-c2ccc3c(ccn3C)c2)c(O)cc1O` [ganetespib, reference compound], the “inhibition” value in assay [1] is listed as “did not inhibit”. Also, in assay [2] (ganetespib 100 nM, 8 h, compared with DMSO), the DYRK1A protein level entry is reported as “decreased the DYRK1A level”. For the same molecule, the “accumulation of endogenous DYRK1A” value in assay [3] is reported as “prevented it”. In assay [4], the EC50 was determined as 14 nM.
As for `O=C1NC(=S)S/C1=C\c1ccc2[nH]ccc2c1` [RD0440], the “inhibitory activity against recombinant DYRK1A” value in assay [5] is reported as “weak inhibitory activity”. Further, the “antagonism of the CDC37-nanoKAZ interaction” value in assay [4] is “did not antagonize the interaction”.
For the molecule `[H]/N=C1/NC(=O)C(=Cc2ccc3[nH]ccc3c2)S1` [PD0442], the “inhibitory activity against recombinant DYRK1A” value in assay [5] is listed as “weak inhibitory activity”. Also, the “antagonism of the CDC37-nanoKAZ interaction” value in assay [4] is on record as “did not antagonize the interaction”.
Turning to `CC[C@H](C)[C@H](NC(=O)[C@H]([C@@H](C)CC)N(C)C(C)=O)C(=O)N[C@H](C(=O)N[C@@H](CC(C)C)C(=O)[C@@]1(C)CO1)[C@@H](C)O` [epoxomicin], the “effect on CaNDY-mediated degradation of 3xFLAG-DYRK1A” value in assay [2] (2 µM epoxomicin pre-treatment 1 h, then CaNDY 2 µM 8 h) is reported as “partially prevented”.
As usually defined, the IC50 is the concentration that gives 50% inhibition. As for `N=C1NC(=O)C(=Cc2ccc3c(c2)OCO3)S1` [PD0439], the IC50 in assay [5] (25 μM ATP, 1 μM DYRKtide-F, read-out: IC50, substrate phosphorylation) was 16.7 nM. Further, in assay [4], the EC50 came out at 573 nM.

For the origin of these results see paper PMC4522657, “Identification of a DYRK1A Inhibitor that Induces Degradation of the Target Kinase using Co-chaperone CDC37 fused with Luciferase nanoKAZ” (Scientific Reports, 2015).
